Laboratory results as given in US20240285514A1, “EXTRACTS OF EUTERPE OLERACEA, METHODS OF MAKING, AND USES THEREOF” (Naturesphix Limited, priority 2021, published 2024).

Assays:
[1] = test system: human fibroblasts; assay: Antioxidant potential against UVB in human fibroblasts (DCFH-DA probe); type: cell-based; conditions: pre-incubation before UVB 90 mJ/cm^2, vs vehicle+UVB
Description: The 2′,7′ dichlorofluorescein diacetate (nonfluorescent) is de-esterified intracellularly and becomes a 2′,7′ highly fluorescent dichlorofluorescein after oxidation. Fluorescence detection was performed at 485 nm excitation wavelength and 535 nm emission wavelength in SpectraMax i3x (Molecular Devices) equipment. […] The concentrations of the Test Substance (10 μg/mL), Ascorbic acid Reference Substance (10 μg/mL) and Ferulic acid Reference Substance (4 μg/mL) were prepared according to the description above (Test Substance, Reference Substances and Vehicle Preparation). The human fibroblasts were incubated with a DCFH-DA probe (50 μM) for 30 minutes. After this period, the fibroblasts were incubated. For statistical analysis, one-way variance analysis (ANOVA) was used, followed by Newman-Keuls test (#p<0.05 compared to Vehicle group and *p<0.05 compared to Vehicle+UVB 90 mJ/cm^2).

[2] = target: T1, MMP-1 enzyme (Homo sapiens, UniProt P03956); assay: Metalloproteinase-1 (MMP-1) enzyme activity; type: biochemical
T1 sequence (P03956 100-469): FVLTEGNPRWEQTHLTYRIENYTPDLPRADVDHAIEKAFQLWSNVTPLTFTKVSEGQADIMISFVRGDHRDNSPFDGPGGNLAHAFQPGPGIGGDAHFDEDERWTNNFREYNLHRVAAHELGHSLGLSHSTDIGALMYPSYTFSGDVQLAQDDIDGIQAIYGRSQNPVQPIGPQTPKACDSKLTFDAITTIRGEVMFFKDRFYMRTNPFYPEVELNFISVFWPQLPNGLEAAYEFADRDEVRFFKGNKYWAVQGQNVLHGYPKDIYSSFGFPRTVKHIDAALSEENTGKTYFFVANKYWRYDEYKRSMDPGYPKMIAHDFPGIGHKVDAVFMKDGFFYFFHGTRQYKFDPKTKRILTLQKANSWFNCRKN
Description: The MMP-1 enzyme was evaluated after incubation with the Vehicle (0.04% DMSO), ST-035 (10 μg/mL), Ascorbic acid Reference Substance (10 μg/mL), Ferulic acid Reference Substance (4 μg/mL) or positive control of the test, GM6001, a MMP-1 enzyme activity inhibitor. The bars represent the mean±standard error of the mean of 1 assay performed in triplicate. The percentage of inhibition was calculated in relation to the Vehicle group. For the statistical analysis a one-way analysis of variance (ANOVA) was used, followed by the Newman-Keuls test (*p<0.05 in comparison to Vehicle group).

[3] = test system: human keratinocytes; assay: Intrinsic antioxidant activity (basal EROs production) with DCFH-DA probe in keratinocytes; type: cell-based; conditions: no UVB, vs vehicle
Description: The 2′,7′ dichlorofluorescein diacetate (nonfluorescent) is de-esterified intracellularly and becomes a 2′,7′ highly fluorescent dichlorofluorescein after oxidation. Fluorescence detection was performed at 485 nm excitation wavelength and 535 nm emission wavelength in SpectraMax i3x (Molecular Devices) equipment. […] The concentrations of the Test Substance (10 μg/mL), Ascorbic acid Reference Substance (10 μg/mL) and Ferulic acid Reference Substance (4 μg/mL) were prepared according to the description above (Test Substance, Reference Substances and Vehicle Preparation). The intrinsic antioxidant activity of Test Substance in human keratinocytes was evaluated as follows. […] Subsequently, the production of EROs was evaluated through the microplate reader (485/535 nm). Two different assays were performed in triplicate. For the statistical analysis, one-way analysis of variance (ANOVA) was used, followed by the Newman-Keuls test (*p<0.05 in comparison to Vehicle group).

[4] = test system: reconstructed human tissue model; assay: Skin irritation assay, reconstructed human epidermis (OECD TG439); type: cell-based; conditions: 42 minutes treatment; three tissues
Description: The possible irritant action of ST-035 on a reconstructed human tissue model, as described in the OECD Guidelines for the Testing of Chemicals, Section 4, TG439 In Vitro Skin Irritation: Reconstructed Human Epidermis Test Method was evaluated. After receiving the tissues, they were readapted in growth medium overnight until the Treatment moment. After the readaptation, Negative Control, positive control (Reference Substance) or Test Substance were added in a 16 μL volume on the epidermis and maintained for 42 minutes (±1 minute). Following, each tissue went through a 25-phosphate buffer washing process to remove the Treatments. Subsequently, the epidermis was maintained for 42 hours (±1 hour) in growth medium in a CO2 incubator (5±0.1%) at 37±0.1° C. After this period, the tissues were incubated for 3 hours (±15 minutes) with a 1 mg/mL MTT solution and then 2 hours with isopropanol for the formazan complex extraction. Then, 200 μL of each well (in duplicate) were transferred to a 96-well plate for absorbance reading at 570 nm.
Skin irritation assay in a reconstructed human skin model is an alternative method that follows the OECD TG439 standards and is validated by international centers, with international regulatory acceptance. […]

[5] = test system: human keratinocytes; assay: Scavenger activity against UVB radiation, section headed 'in Fibroblasts' (FIG. 14); type: cell-based; conditions: 10 μg/mL added immediately prior to UVB 90 mJ/cm2; vs vehicle+UVB
Description: (§1) The 2′,7′ dichlorofluorescein diacetate (nonfluorescent) is de-esterified intracellularly and becomes a 2′,7′ highly fluorescent dichlorofluorescein after oxidation. Fluorescence detection was performed at 485 nm excitation wavelength and 535 nm emission wavelength in SpectraMax i3x (Molecular Devices) equipment. […] The concentrations of the Test Substance (10 μg/mL), Ascorbic acid Reference Substance (10 μg/mL) and Ferulic acid Reference Substance (4 μg/mL) were prepared according to the description above (Test Substance, Reference Substances and Vehicle Preparation).

[6] = test system: human keratinocytes; assay: Antioxidant potential against UVB radiation in keratinocytes (24 h pre-treatment, DCFH-DA probe); type: cell-based; conditions: 10 μg/mL; incubation 24 hours before UVB 90 mJ/cm^2; vs vehicle+UVB
Description: as §1

[7] = test system: human keratinocytes; assay: Scavenger potential against UVB radiation in keratinocytes (DCFH-DA probe); type: cell-based; conditions: 10 μg/mL added immediately prior to UVB 90 mJ/cm^2; vs vehicle+UVB
Description: as §1

[8] = test system: tyrosinase; assay: Tyrosinase enzyme activity; type: biochemical
Description: After that, 170 μL of L-tyrosine substrate 1 mM, solubilized in a potassium phosphate buffer 50 mM (pH 6.5) were added. After the incubation period of 30 to 40 minutes, the plate was read at 490 nm.
For the statistical analysis one-way analysis of variance (ANOVA) was used, followed by the Newman-Keuls test (*p<0.05 in comparison to the Vehicle group). The percentage of inhibition was calculated in relation to the Vehicle group.

In the case of `COc1cc(/C=C/C(=O)O)ccc1O` [ferulic acid], the “reduction of production of reactive oxygen species (antioxidant potential)” value ([1]; 4 μg/mL) is reported as 47.4±0.5%, the “change of MMP-1 activity in vitro” value ([2]; 4 μg/mL, vs vehicle) is reported as “did not change” and the “reduction of basal production of EROs” value ([3]; 4 μg/mL, 4 hours) is reported as 26.8±2.4%. The “reduction of basal production of EROs” value ([3]; 4 μg/mL, 24 hours) was 45.8±6.6%.
`CCCCCCCCCCCCOS(=O)(=O)[O-].[Na+]` [SDS, sodium dodecylsulfate] was tested, and the “tissue viability mean (absorbance at 570 nm)” value [4] was 0.018±0.001.
With `CNC(=O)[C@H](Cc1c[nH]c2ccccc12)NC(=O)[C@@H](CC(=O)NO)CC(C)C` [GM6001] the “reduction of MMP-1 activity” value ([2]; 1 μM, assay validation) was 81.3±1.5%.
For `O=C1O[C@H]([C@@H](O)CO)C(O)=C1O` [ascorbic acid], the “reduction of production of reactive oxygen species (antioxidant potential)” value ([1]; 10 μg/mL) was 30.5±6.2%, the “reduction of UVB induced production of EROs (scavenger potential, FIG. 14)” value [5] was 46.2±2.0% and the “decrease of production of EROs after UVB (antioxidant capacity)” value [6] was 44.3±11.4%. For the same compound, the “reduction of UVB induced production of EROs (scavenger potential)” value [7] was 46.2±2.0%, the inhibition at 10 µg/mL ([2]; 10 μg/mL, vs vehicle) was 9.2 ± 1.5% and the “reduction of basal production of EROs” value ([3]; 10 μg/mL, 4 hours) was “did not change”. The “reduction of basal production of EROs” value ([3]; 10 μg/mL, 24 hours) was “did not change”.
With `O=c1cc(CO)occ1O` [kojic acid] the “reduction of tyrosinase enzyme activity” value ([8]; 300 μg/mL) was 43% and the “reduction of tyrosinase enzyme activity” value ([8]; 1,000 μg/mL) was 84%.
